We go through eleven molecules from ChEMBL document CHEMBL4340524, “Design and synthesis of a novel 1H-pyrrolo[3,2-b]pyridine-3-carboxamide derivative as an orally available ACC1 inhibitor” (Bioorg Med Chem, 2019).

The target in data set [1] is T1, Acetyl-CoA carboxylase 1 (Homo sapiens, UniProt Q13085). The data set can be described thus: Inhibition of recombinant human ACC1 expressed in Sf9 cells at 10 uM using acetyl Co-A as substrate preincubated for 60 mins followed by substrate addition and measured after 30 mins by RapidFire-Mass spectrometry relative to control.
In data set [2] the target is T2, Acetyl-CoA carboxylase 2 (Homo sapiens, UniProt O00763). Briefly: Inhibition of recombinant human ACC2 expressed in Sf9 cells at 10 uM using acetyl Co-A as substrate preincubated for 60 mins followed by substrate addition and measured after 30 mins by RapidFire-Mass spectrometry relative to control.
Target sequence in this assay (O00763 whole entry, looked up): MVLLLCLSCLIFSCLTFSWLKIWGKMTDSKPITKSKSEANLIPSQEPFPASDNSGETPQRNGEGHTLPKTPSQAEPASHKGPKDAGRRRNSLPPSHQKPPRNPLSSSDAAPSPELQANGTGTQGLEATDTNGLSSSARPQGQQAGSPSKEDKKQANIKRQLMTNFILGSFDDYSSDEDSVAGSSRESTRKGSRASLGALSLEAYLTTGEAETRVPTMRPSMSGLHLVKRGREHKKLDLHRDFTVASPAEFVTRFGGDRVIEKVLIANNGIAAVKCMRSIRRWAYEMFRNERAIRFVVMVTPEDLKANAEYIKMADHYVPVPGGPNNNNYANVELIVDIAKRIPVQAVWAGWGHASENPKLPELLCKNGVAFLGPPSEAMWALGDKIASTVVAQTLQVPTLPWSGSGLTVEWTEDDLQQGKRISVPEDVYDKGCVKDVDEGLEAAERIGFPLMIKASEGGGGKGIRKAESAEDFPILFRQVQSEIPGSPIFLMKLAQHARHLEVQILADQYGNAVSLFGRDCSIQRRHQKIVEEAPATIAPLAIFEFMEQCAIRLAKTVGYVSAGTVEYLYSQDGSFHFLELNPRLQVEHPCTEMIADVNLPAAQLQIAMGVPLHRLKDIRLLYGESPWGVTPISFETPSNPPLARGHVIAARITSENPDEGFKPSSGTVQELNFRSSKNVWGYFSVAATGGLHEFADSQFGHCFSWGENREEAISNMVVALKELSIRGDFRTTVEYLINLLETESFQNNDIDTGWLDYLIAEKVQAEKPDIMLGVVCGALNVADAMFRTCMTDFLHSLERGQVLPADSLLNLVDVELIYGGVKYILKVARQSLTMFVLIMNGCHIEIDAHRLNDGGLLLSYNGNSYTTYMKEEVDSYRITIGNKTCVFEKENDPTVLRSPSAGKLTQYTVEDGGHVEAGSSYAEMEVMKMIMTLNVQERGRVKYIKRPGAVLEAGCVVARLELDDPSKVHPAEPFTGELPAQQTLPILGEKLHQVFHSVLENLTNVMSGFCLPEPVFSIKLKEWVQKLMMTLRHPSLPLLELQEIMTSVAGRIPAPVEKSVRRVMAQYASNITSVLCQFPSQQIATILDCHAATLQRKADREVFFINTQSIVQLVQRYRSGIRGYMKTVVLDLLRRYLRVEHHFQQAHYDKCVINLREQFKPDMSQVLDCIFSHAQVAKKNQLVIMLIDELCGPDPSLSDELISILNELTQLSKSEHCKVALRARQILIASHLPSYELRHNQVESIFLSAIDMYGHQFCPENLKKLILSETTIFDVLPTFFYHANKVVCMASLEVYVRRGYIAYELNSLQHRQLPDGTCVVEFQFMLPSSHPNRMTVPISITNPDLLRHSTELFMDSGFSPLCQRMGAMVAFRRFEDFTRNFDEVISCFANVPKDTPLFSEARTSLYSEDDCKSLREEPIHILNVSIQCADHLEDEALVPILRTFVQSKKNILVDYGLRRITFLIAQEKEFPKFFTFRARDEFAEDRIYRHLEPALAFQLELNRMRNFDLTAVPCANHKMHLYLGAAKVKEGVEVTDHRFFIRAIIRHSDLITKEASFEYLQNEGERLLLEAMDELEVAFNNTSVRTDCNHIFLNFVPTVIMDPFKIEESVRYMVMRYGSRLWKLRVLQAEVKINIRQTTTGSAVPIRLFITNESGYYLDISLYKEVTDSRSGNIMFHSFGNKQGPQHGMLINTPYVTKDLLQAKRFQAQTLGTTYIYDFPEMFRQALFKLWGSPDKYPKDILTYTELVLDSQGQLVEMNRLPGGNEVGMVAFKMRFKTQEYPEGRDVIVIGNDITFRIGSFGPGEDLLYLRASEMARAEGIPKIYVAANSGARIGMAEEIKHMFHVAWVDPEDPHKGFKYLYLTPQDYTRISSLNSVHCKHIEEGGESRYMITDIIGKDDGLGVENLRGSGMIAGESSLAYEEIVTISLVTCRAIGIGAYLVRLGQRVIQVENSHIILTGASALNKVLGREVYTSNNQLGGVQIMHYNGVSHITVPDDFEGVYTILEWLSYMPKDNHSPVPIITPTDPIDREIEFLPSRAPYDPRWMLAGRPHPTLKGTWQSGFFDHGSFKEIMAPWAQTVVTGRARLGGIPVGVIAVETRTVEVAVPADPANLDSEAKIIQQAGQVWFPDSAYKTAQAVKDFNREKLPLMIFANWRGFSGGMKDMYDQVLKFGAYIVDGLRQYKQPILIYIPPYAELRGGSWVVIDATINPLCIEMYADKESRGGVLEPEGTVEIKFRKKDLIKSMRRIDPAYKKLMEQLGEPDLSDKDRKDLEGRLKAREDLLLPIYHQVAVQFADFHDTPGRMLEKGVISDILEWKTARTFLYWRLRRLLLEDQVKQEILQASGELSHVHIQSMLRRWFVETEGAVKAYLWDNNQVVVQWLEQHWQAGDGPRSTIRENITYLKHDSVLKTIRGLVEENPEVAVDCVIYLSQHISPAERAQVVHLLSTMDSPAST
The species named for another data set is Homo sapiens. The data set can be described thus: Selectivity ratio of IC50 for recombinant human ACC2 expressed in Sf9 cells to IC50 for recombinant human ACC1 expressed in Sf9 cells.
The nature of data set [3]: AUC (0 to 8 hrs) in ICR mouse at 0.1 mg/kg, iv or 1 mg/kg, po administered as cassette dose by LC-MS/MS analysis. It is filed as ADME, organism-based. The following applies: in vivo.
Data set [4] has as its target T2, Acetyl-CoA carboxylase 2. The data set can be described thus: Inhibition of recombinant human ACC2 expressed in Sf9 cells using acetyl Co-A as substrate preincubated for 60 mins followed by substrate addition and measured after 30 mins by RapidFire-Mass spectrometry.
Target sequence in this assay (O00763 whole entry): as the sequence (O00763 whole entry, looked up) above
Data set [5] can be described thus: Oral bioavailability in ICR mouse at 1 mg/kg administered as cassette dose by LC-MS/MS analysis. It is filed as ADME, organism-based. To be noted: in vivo.
Data set [6] deals with T1, Acetyl-CoA carboxylase 1. Briefly: Inhibition of ACC1 in human HCT116 cells assessed as reduction in [14C]acetate uptake preincubated for 60 mins followed by [14C]acetate addition and measured after 2 hrs by top count scintillation counting method. The format is cell-based.
Data set [7] is described as follows: Solubility of the compound in pH 6.8 aqueous buffer by HPLC analysis. It is filed as physicochemical.
In data set [8] the target is T1, Acetyl-CoA carboxylase 1. Briefly: Inhibition of recombinant human ACC1 expressed in Sf9 cells using acetyl Co-A as substrate preincubated for 60 mins followed by substrate addition and measured after 30 mins by RapidFire-Mass spectrometry.
A further data set relates to Mus musculus. The data set can be described thus: In vivo inhibition of ACC1 in BALB/cA Jc1-nu/nu mouse xenografted with human HCT116 cells assessed as suppression of malonyl-CoA synthesis at 100 mg/kg, po administered as single dose measured after 16 hrs by RPLC-MS/MS analysis. The format is functional, organism-based.

Converted amounts (≈) assume the structure as drawn. The source made the active and inactive calls. The calls are words filed in the database; no cut-off is given here.

In the case of `O=C(Nc1ccc2[nH]ncc2c1)c1c[nH]c2cc(-c3ccccc3)cnc12`, the inhibition at Acetyl-CoA carboxylase 1 [1] came out at 45%; at Acetyl-CoA carboxylase 2 [2], 4%.

As to `Cn1cc(C(=O)Nc2ccc3[nH]ccc3c2)c2ncc(-c3ccccc3)cc21`, on Acetyl-CoA carboxylase 1 [1], the inhibition amounted to 69%.

On to `Cn1cc(C(=O)Nc2ccc3[nH]ncc3c2)c2ncc(-c3ccccc3)cc21`, for which the Ratio IC50 in the data set listed under Homo sapiens amounted to 5. This molecule yielded an AUC(0-t) in data set [3] of 189 ng·h/mL. In addition, the inhibition at Acetyl-CoA carboxylase 1 [1] was found to be 99%; at Acetyl-CoA carboxylase 2 [2], 83%. Besides, the IC50 at Acetyl-CoA carboxylase 2 [4] is 4000 nM; on Acetyl-CoA carboxylase 1 [6], 430 nM; at Acetyl-CoA carboxylase 1 [8] it was 820 nM. Further, in data set [5], the bioavailability amounted to 39.3%. In [7], this molecule showed a solubility of 60 µg/mL (≈ 163 µM).

Consider `CC(C)n1cc(C(=O)Nc2ccc3[nH]ncc3c2)c2ncc(-c3ccc(N)cc3)cc21`, for which the IC50 at Acetyl-CoA carboxylase 2 [4] worked out at 2200 nM; on Acetyl-CoA carboxylase 1 [6] it was 490 nM; on Acetyl-CoA carboxylase 1 [8] it was 210 nM.

On to `Cn1cc(C(=O)Nc2ccc3c(cnn3C)c2)c2ncc(-c3ccccc3)cc21`, for which, at Acetyl-CoA carboxylase 1 [1], the inhibition amounted to 26%.

Consider `CN(C(=O)c1cn(C)c2cc(-c3ccccc3)cnc12)c1ccc2[nH]ncc2c1`, for which the inhibition on Acetyl-CoA carboxylase 1 [1] is 7%; on Acetyl-CoA carboxylase 2 [2] it was 6%.

As for `CC(C)n1cc(C(=O)Nc2ccc3[nH]ncc3c2)c2ncc(-c3ccccc3)cc21`, in [3], the AUC(0-t) came to 1700 ng·h/mL. Also, the concentration for half-maximal inhibition (IC50) at Acetyl-CoA carboxylase 2 [4] was 6400 nM; at Acetyl-CoA carboxylase 1 [6], > 1000 nM; at Acetyl-CoA carboxylase 1 [8] it was 1600 nM. The molecule also showed a bioavailability in data set [5] of 59.8%. The molecule also returned a solubility in data set [7] of 3200 µg/mL (≈ 8090 µM).

Take `O=C(Nc1ccc2[nH]ncc2c1)c1c[nH]c2cc(-c3ccccc3)ccc12`: the figures for the inhibition on Acetyl-CoA carboxylase 1 [1] and at Acetyl-CoA carboxylase 2 [2] were -7% and -8%, respectively.

Turning to `Cn1cc(C(=O)Nc2ccc3[nH]cnc3c2)c2ncc(-c3ccccc3)cc21`, the inhibition on Acetyl-CoA carboxylase 1 [1] stood at 51%; on Acetyl-CoA carboxylase 2 [2], 31%.

In data set [3], `CCn1cc(C(=O)Nc2ccc3[nH]ncc3c2)c2ncc(-c3ccccc3)cc21` gave an area under the curve AUC(0-t) of 653 ng·h/mL. The IC50 on Acetyl-CoA carboxylase 2 [4] was 3700 nM; on Acetyl-CoA carboxylase 1 [6] it was 130 nM; on Acetyl-CoA carboxylase 1 [8], 1000 nM. Moreover, in [5], the bioavailability was determined as 57.7%. Also, in [7], the solubility is < 60 µg/mL.

`CC(C)n1cc(C(=O)Nc2cc3cn[nH]c3cc2F)c2ncc(-c3ccc(N)cc3)cc21`: the AUC(0-t) in data set [3] is 647 ng·h/mL. The figures for the concentration for half-maximal inhibition (IC50) on Acetyl-CoA carboxylase 2 [4], on Acetyl-CoA carboxylase 1 [6] and on Acetyl-CoA carboxylase 1 [8] were 2000 nM, 150 nM and 170 nM, respectively. Also, in data set [5], the bioavailability stood at 63.2%. Further, in the data set on Mus musculus, the inhibition entry is “Active”.
